*1 amine or outer side, *2 acyl side, *3 side chain or, on linkers, in order; H or OH if unused. Where a SMILES comes first, the peptide text is derived from it. [ ]: non-standard residue; d: D form. X1 = O=C([C@H]1CCC[C@@H]1N[*:1])[*:2]; X2 = O=C([C@H]1CNC[C@@H]1N[*:1])[*:2]; Aib = CC(C)(N)C(=O)O

Results on six molecules are retold here after article PMC5207657 (Journal of the American Chemical Society, 2016).

For assay [1], the target named is Human GLP-1R (glucagon-like peptide-1 receptor) (human) (UniProt P43220).
Chain of Human GLP-1R (glucagon-like peptide-1 receptor) (human) (P43220 24-463): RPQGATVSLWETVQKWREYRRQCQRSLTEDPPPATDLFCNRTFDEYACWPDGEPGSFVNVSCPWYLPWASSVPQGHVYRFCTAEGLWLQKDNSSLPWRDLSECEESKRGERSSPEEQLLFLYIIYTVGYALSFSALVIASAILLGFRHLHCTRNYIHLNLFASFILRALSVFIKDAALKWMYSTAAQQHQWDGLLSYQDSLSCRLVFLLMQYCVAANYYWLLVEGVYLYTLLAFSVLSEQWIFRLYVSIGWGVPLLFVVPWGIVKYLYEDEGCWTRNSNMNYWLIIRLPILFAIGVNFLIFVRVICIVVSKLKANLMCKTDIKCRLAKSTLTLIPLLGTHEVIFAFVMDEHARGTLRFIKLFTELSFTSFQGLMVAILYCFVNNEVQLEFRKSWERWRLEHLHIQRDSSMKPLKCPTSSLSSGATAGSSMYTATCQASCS
Assay [2] has as its target T1, GLP-1R (Homo sapiens, UniProt P43220). The experiment in a line: GloSensor cAMP reporter assay. It counts as cell-based. Particulars: read-out: cAMP Max Response (% GLP-1). Background: A reporter such as luciferase makes a cellular process visible.
For assay [3], the target named is T1, GLP-1R. The experiment in a line: cell-based. Particulars: HEK293FT, read-out: β-Arrestin-2 Max Response (% GLP-1).
The target in assay [4] is T1, GLP-1R. The experiment in a line: β-arrestin-1 recruitment BRET^2 assay. The conditions noted are these: for Emax: HEK293FT, read-out: β-Arrestin-1 Max Response (% GLP-1). A general note: Arrestin recruitment assays detect the binding of arrestin to an activated receptor.
Assay [5] deals with T1, GLP-1R. Particulars: within the concentration range examined (up to 1 µM).
The conditions of assay [6]: previous studies; cited from earlier work.
In a further assay the test system is mouse pancreatic islets. Particulars: cited from earlier work.

T1 sequence (P43220 24-463): as above

With GLP-1(7–36)NH2 (peptide), the cAMP production (GloSensor reporter cells), pEC50 in assay [1] was -10.3 pEC50 (M).

`CC[C@H](C)[C@H](NC(=O)[C@H](Cc1ccccc1)NC(=O)[C@H](CCC(=O)O)NC(=O)[C@H]1CNC[C@@H]1NC(=O)[C@H](C)NC(=O)[C@H](C)NC(=O)[C@H](CCC(N)=O)NC(=O)[C@H]1CCC[C@@H]1NC(=O)[C@H](CCC(=O)O)NC(=O)[C@H](CC(C)C)NC(=O)[C@H](Cc1ccc(O)cc1)NC(=O)[C@H]1CCC[C@@H]1NC(=O)[C@H](CO)NC(=O)C(C)(C)NC(=O)[C@H](CC(=O)O)NC(=O)[C@H](CO)NC(=O)[C@@H](NC(=O)[C@H](Cc1ccccc1)NC(=O)[C@@H](NC(=O)CNC(=O)[C@H](CCC(=O)O)NC(=O)[C@H](C)NC(=O)[C@@H](N)Cc1c[nH]cn1)[C@@H](C)O)[C@@H](C)O)C(=O)N[C@@H](C)C(=O)N[C@@H](Cc1c[nH]c2ccccc12)C(=O)N[C@@H](CC(C)C)C(=O)N[C@H](C(=O)N[C@@H](CCCCN)C(=O)NCC(=O)N[C@@H](CCCNC(=N)N)C(=O)NCC(N)=O)C(C)C` [α/β-Peptide 9] (H-HAEGTFTSD[Aib]S[X1]YLE[X1]QAA[X2]EFIAWLVKGRG-NH2): the Emax came out at 97 ± 2% at GLP-1R [2], 59 ± 2% at GLP-1R [3] and 41 ± 4% on GLP-1R [4].

Turning to `CC[C@H](C)[C@H](NC(=O)[C@H](Cc1ccccc1)NC(=O)[C@H](CCC(=O)O)NC(=O)[C@H]1CNC[C@@H]1NC(=O)[C@H](C)NC(=O)[C@H](C)NC(=O)[C@H](CCC(N)=O)NC(=O)[C@H]1CCC[C@@H]1NC(=O)[C@H](CCC(=O)O)NC(=O)[C@H](CC(C)C)NC(=O)[C@H](Cc1ccc(O)cc1)NC(=O)[C@H]1CCC[C@@H]1NC(=O)[C@H](CO)NC(=O)C(C)(C)NC(=O)[C@H](CC(=O)O)NC(=O)[C@H](CO)NC(=O)[C@@H](NC(=O)[C@H](Cc1ccccc1)NC(=O)[C@@H](NC(=O)CNC(=O)[C@H](CCC(=O)O)NC(=O)C(C)(C)NC(=O)[C@@H](N)Cc1c[nH]cn1)[C@@H](C)O)[C@@H](C)O)C(=O)N[C@H]1CCC[C@@H]1C(=O)N[C@@H](Cc1c[nH]c2ccccc12)C(=O)N[C@@H](CC(C)C)C(=O)N[C@H](C(=O)N[C@H]1CNC[C@@H]1C(=O)NCC(=O)N[C@@H](CCCNC(=N)N)C(=O)NCC(N)=O)C(C)C` [α/β-Peptide 4] (H-H[Aib]EGTFTSD[Aib]S[X1]YLE[X1]QAA[X2]EFI[X1]WLV[X2]GRG-NH2), the Emax on GLP-1R [2] was determined as 60 ± 5%; at GLP-1R [3], 13 ± 4%; on GLP-1R [4], 6 ± 8%. Also, the “β-arrestin-2 recruitment, result in words” value at GLP-1R [5] was “no significant recruitment”. Also, the “control of blood glucose in vivo” value in assay [6] is “can control blood glucose in vivo”. The “duration of glucose control relative to GLP-1” value in assay [6] is on record as “prolonged”. In addition, the “insulin secretagogue activity compared with GLP-1” value in the assay on mouse pancreatic islets is reported as “indistinguishable”. Besides, the “β-arrestin-1 recruitment, result in words” value at GLP-1R [4] (within the concentration range examined (up to 1 µM)) is listed as “no significant recruitment”.

For the molecule `CC[C@H](C)[C@H](NC(=O)[C@H](Cc1ccccc1)NC(=O)[C@H](CCC(=O)O)NC(=O)[C@H]1CNC[C@@H]1NC(=O)[C@H](C)NC(=O)[C@H](C)NC(=O)[C@H](CCC(N)=O)NC(=O)[C@H]1CCC[C@@H]1NC(=O)[C@H](CCC(=O)O)NC(=O)[C@H](CC(C)C)NC(=O)[C@H](Cc1ccc(O)cc1)NC(=O)[C@H]1CCC[C@@H]1NC(=O)[C@H](CO)NC(=O)[C@@H](NC(=O)[C@H](CC(=O)O)NC(=O)[C@H](CO)NC(=O)[C@@H](NC(=O)[C@H](Cc1ccccc1)NC(=O)[C@@H](NC(=O)CNC(=O)[C@H](CCC(=O)O)NC(=O)[C@H](C)NC(=O)[C@@H](N)Cc1c[nH]cn1)[C@@H](C)O)[C@@H](C)O)C(C)C)C(=O)N[C@@H](C)C(=O)N[C@@H](Cc1c[nH]c2ccccc12)C(=O)N[C@@H](CC(C)C)C(=O)N[C@H](C(=O)N[C@@H](CCCCN)C(=O)NCC(=O)N[C@@H](CCCNC(=N)N)C(=O)NCC(N)=O)C(C)C` [α/β-Peptide 8] (H-HAEGTFTSDVS[X1]YLE[X1]QAA[X2]EFIAWLVKGRG-NH2), the Emax at GLP-1R [2] was 96 ± 1%; at GLP-1R [3], 63 ± 5%; on GLP-1R [4] it was 43 ± 3%.

Consider `CC[C@H](C)[C@H](NC(=O)[C@H](Cc1ccccc1)NC(=O)[C@H](CCC(=O)O)NC(=O)[C@H]1CNC[C@@H]1NC(=O)[C@H](C)NC(=O)[C@H](C)NC(=O)[C@H](CCC(N)=O)NC(=O)CNC(=O)[C@H](CCC(=O)O)NC(=O)[C@H](CC(C)C)NC(=O)[C@H](Cc1ccc(O)cc1)NC(=O)[C@H]1CCC[C@@H]1NC(=O)[C@H](CO)NC(=O)[C@@H](NC(=O)[C@H](CC(=O)O)NC(=O)[C@H](CO)NC(=O)[C@@H](NC(=O)[C@H](Cc1ccccc1)NC(=O)[C@@H](NC(=O)CNC(=O)[C@H](CCC(=O)O)NC(=O)[C@H](C)NC(=O)[C@@H](N)Cc1c[nH]cn1)[C@@H](C)O)[C@@H](C)O)C(C)C)C(=O)N[C@@H](C)C(=O)N[C@@H](Cc1c[nH]c2ccccc12)C(=O)N[C@@H](CC(C)C)C(=O)N[C@H](C(=O)N[C@@H](CCCCN)C(=O)NCC(=O)N[C@@H](CCCNC(=N)N)C(=O)NCC(N)=O)C(C)C` [α/β-Peptide 13] (H-HAEGTFTSDVS[X1]YLEGQAA[X2]EFIAWLVKGRG-NH2), for which the Emax was found to be 104 ± 1% on GLP-1R [2], 74 ± 4% on GLP-1R [3] and 80 ± 3% on GLP-1R [4].

For the molecule `CC[C@H](C)[C@H](NC(=O)[C@H](Cc1ccccc1)NC(=O)[C@H](CCC(=O)O)NC(=O)[C@H]1CNC[C@@H]1NC(=O)[C@H](C)NC(=O)[C@H](C)NC(=O)[C@H](CCC(N)=O)NC(=O)CNC(=O)[C@H](CCC(=O)O)NC(=O)[C@H](CC(C)C)NC(=O)[C@H](Cc1ccc(O)cc1)NC(=O)[C@H](CO)NC(=O)[C@H](CO)NC(=O)[C@@H](NC(=O)[C@H](CC(=O)O)NC(=O)[C@H](CO)NC(=O)[C@@H](NC(=O)[C@H](Cc1ccccc1)NC(=O)[C@@H](NC(=O)CNC(=O)[C@H](CCC(=O)O)NC(=O)[C@H](C)NC(=O)[C@@H](N)Cc1c[nH]cn1)[C@@H](C)O)[C@@H](C)O)C(C)C)C(=O)N[C@H]1CCC[C@@H]1C(=O)N[C@@H](Cc1c[nH]c2ccccc12)C(=O)N[C@@H](CC(C)C)C(=O)N[C@H](C(=O)N[C@H]1CNC[C@@H]1C(=O)NCC(=O)N[C@@H](CCCNC(=N)N)C(=O)NCC(N)=O)C(C)C` [α/β-Peptide 1] (H-HAEGTFTSDVSSYLEGQAA[X2]EFI[X1]WLV[X2]GRG-NH2), the figures for the Emax on GLP-1R [2], at GLP-1R [3] and on GLP-1R [4] were 101 ± 1%, 78 ± 4% and 88 ± 6%, respectively.
